# In patent US11000511B2, “Chemical compounds as antibiotics” (priority 2017, dated 2021):
# What was measured:
# [1] = target: T1, purified LasB protein from P. aeruginosa (Pseudomonas aeruginosa, UniProt P14756); experiment: Fluorometric assay to determine Ki (Assay 1); format: biochemical; details: Ki (μM) Assay 1, purified LasB, substrate Abz-Ala-Gly-Leu-Ala-p-Nitro-Benzyl-Amide 250 μM, Ki calculated from IC50; inhibitor 0.006 to 200 μM
# T1 construct: purchased Merck or Charles River Laboratories
# T1 sequence (P14756 198-498): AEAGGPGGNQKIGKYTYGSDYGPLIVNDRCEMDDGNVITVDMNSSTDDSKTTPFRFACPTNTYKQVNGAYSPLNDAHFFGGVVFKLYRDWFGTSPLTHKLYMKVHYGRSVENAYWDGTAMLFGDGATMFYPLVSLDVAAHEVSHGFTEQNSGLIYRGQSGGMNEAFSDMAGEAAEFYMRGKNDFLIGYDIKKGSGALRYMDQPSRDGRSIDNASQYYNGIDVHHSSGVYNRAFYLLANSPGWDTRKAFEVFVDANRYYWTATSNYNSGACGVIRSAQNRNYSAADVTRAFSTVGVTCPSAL
# Protocol: (§1) Experiments were therefore conducted (1) to measure the potency of inhibition of compounds of the invention against purified Pseudomonas aeruginosa LasB enzyme and also experiments were conducted (2) to measure the ability of compounds of the invention to inhibit LasB-catalysed elastin degradation. The first assay uses a commercial fluorescent synthetic peptide and purified LasB enzyme. The LasB hydrolysis kinetics are measured allowing the determination of the IC50 and Ki of the inhibitors; the second is a more physiological assay using dialysed Pseudomonas aeruginosa supernatant as source of enzyme, plus its natural substrate Elastin. It is an “end point assay” that determines the percentage of LasB inhibition by each compound for one particular time point and inhibitor concentration. Technical details are described below:
# This assay uses commercially available substrate (Abz-Ala-Gly-Leu-Ala-p-Nitro-Benzyl-Amide (Ex: 340 nm, Em: 415 nm) from Peptide International) and purified LasB protein from P. aeruginosa (provided by Merck or Charles River Laboratories). It is performed to determine LasB elastase activity and assess compound inhibition in 96-well plate format. Some compounds of Formula (I) were assessed using the method of Assay 1 (described below). Other compounds of Formula (I) were assessed using the alternative but equivalent method of Assay 2 (described below).
# Method: 10 to 140 ng/ml purified LasB is incubated with 250 μM Abz-Ala-Gly-Leu-Ala-p-Nitro-Benzyl-Amide in 50 mM Tris-HCl pH 7.4, 2.5 mM CaCl2), 0.01% of Triton X100 at 37° C. LasB activity (corresponding to fluorescence emission induced by substrate hydrolysis) is measured over 30 min at 37° C. with a fluorescence plate reader such as the Perkin Elmer Envision or similar. Different range of inhibitor concentrations are routinely assessed depending of inhibitor potency from 0.006 to 200 μM (Assay 1; 2-fold dilutions series) or from 0.0016 to 200 μM (Assay 2; 2-fold dilutions series) in order to determine IC50.
# The equation used to calculate the Ki from IC50 is: Ki=IC50/(1+([S]/Km)) where [S]=250 μM and Km=214 μM.
# [2] = target: T2, LasB elastase activity in dialysed supernatant from P. aeruginosa strain PA01 (Pseudomonas aeruginosa, UniProt P14756); experiment: Elastin Congo Red assay to determine % inhibition (Assay 1); format: biochemical; details: read-out: Elastin hydrolysis % inhibition @ 50/25 μM inhibitor concentration Assay 1
# T2 construct: uses as source of enzyme dialysed supernatant from P. aeruginosa; endogenous in cells; host or cells: P. aeruginosa strain PA01 culture supernatant, filtered and dialysed
# T2 sequence (P14756 198-498): as above
# Protocol: as §1
# The Elastin assay uses as source of enzyme dialysed supernatant from P. aeruginosa and the elastin congo red as substrate. The natural LasB substrate, elastin, is complexed with the congo red dye (Elastin Congo Red, ECR). The elastolysis activity from the culture supernatant will degrade elastin and release the congo red dye into the supernatant. This red dye release can be measured with a spectrophotometer. Some compounds of Formula (I) were assessed using the method of Assay 1 (described below). Other compounds of Formula (I) were assessed using the alternative but equivalent method of Assay 2 (described below).
# Method (Assay 1): To determine LasB elastase activity and assess compound inhibition, an overnight culture of P. aeruginosa strain PA01 is diluted thousand-fold in LB medium. This diluted solution is incubated during 19 hours in a shaking incubator. Culture supernatants are recovered by centrifugation and filtrated through a […] filter. These supernatants are dialysed (filtration molecules <20 kDa) into a 50 mM Tris pH 7.4, 2.5 mM CaCl2 solution at 4° C. under agitation for 24 hours. Supernatant dialysed is then mixed volume/volume with the ECR suspension (20 mg/mL of ECR in 100 mM Tris buffer supplemented with 1 mM CaCl2) supplemented with TritonX 100 (final concentration of 0.01%) in presence of different concentrations of compound (routinely 50 and 25 μM). The mixed reaction is then incubated for 24 hours in a 37° shaking incubator. As a negative control, the mixed supernatant is replaced by Tris solution (50 mM Tris pH 7.4, 2.5 mM CaCl2). The reaction supernatant is recovered by centrifugation and the release of congo red is measured by its absorbance at OD520. Percentage inhibition is determined using the following equation: (OD520 value of DMSO SN−OD520 value of LB)−(OD520 value of Compound SN−OD520 value of LB)/(OD520 value of DMSO SN−OD520 value of LB)×100.
compound,measurement,setting,value
"O=C(O)CC1(C(=O)NCCc2ccc(O)cc2)Cc2ccccc2C1 [Example 13, 2-[2-[2-(4-hydroxyphenyl)ethylcarbamoyl]indan-2-yl]acetic acid]",Ki,[1],2 to 10 µM
same,inhibition at 50 µM,[2],30 to 60%
"O=C(O)CC1(C(=O)NCCc2c[nH]c3ccccc23)Cc2ccccc2C1 [Example 14, 2-[2-[2-(1H-indol-3-yl)ethylcarbamoyl]indan-2-yl]acetic acid]",Ki,[1],< 0.3 µM
same,inhibition at 50 µM,[2],30 to 60%
"O=C(O)CC1(C(=O)NCc2ccccc2)Cc2ccccc2C1 [Example 16, 2-[2-(benzylcarbamoyl)indan-2-yl]acetic acid]",Ki,[1],2 to 10 µM
same,inhibition at 50 µM,[2],30 to 60%
"O=C(O)CC1(C(=O)NCC2COc3ccccc3O2)Cc2ccccc2C1 (stereo not drawn) [Example 17, 2-[2-(2,3-dihydro-1,4-benzodioxin-3-ylmethylcarbamoyl)indan-2-yl]acetic acid]",Ki,[1],0.3 to 2 µM
same,inhibition at 50 µM,[2],30 to 60%
"O=C(O)CC1(C(=O)NCc2cc3cc(Br)ccc3o2)Cc2ccccc2C1 [Example 18, 2-[2-[(5-bromobenzofuran-2-yl)methylcarbamoyl]indan-2-yl]acetic acid]",Ki,[1],< 0.3 µM
same,inhibition at 50 µM,[2],> 60%
"O=C(O)CC1(C(=O)NCCc2cc3ccccc3o2)Cc2ccccc2C1 [Example 19, 2-[2-[2-(benzofuran-2-yl)ethylcarbamoyl]indan-2-yl]acetic acid]",Ki,[1],2 to 10 µM
same,inhibition at 50 µM,[2],15 to 30%
"Cc1oc2ccccc2c1CNC(=O)C1(CC(=O)O)Cc2ccccc2C1 [Example 20, 2-[2-[(2-methylbenzofuran-3-yl)methylcarbamoyl]indan-2-yl]acetic acid]",Ki,[1],2 to 10 µM
same,inhibition at 50 µM,[2],30 to 60%
"Cn1cnc(CNC(=O)C2(CC(=O)O)Cc3ccccc3C2)c1 [Example 21, 2-[2-[(1-methylimidazol-4-yl)methylcarbamoyl]indan-2-yl]acetic acid]",Ki,[1],2 to 10 µM
same,inhibition at 50 µM,[2],30 to 60%
"O=C(O)CC1(C(=O)NCCc2nc3ccccc3s2)Cc2ccccc2C1 [Example 22, 2-[2-[2-(1,3-benzothiazol-2-yl)ethylcarbamoyl]indan-2-yl]acetic acid]",Ki,[1],2 to 10 µM
same,inhibition at 50 µM,[2],15 to 30%
"O=C(O)CC1(C(=O)NCc2cc3ccccc3s2)Cc2ccccc2C1 [Example 23, 2-[2-(benzothiophen-2-ylmethylcarbamoyl)indan-2-yl]acetic acid]",Ki,[1],< 0.3 µM
same,inhibition at 50 µM,[2],30 to 60%
"COc1ccc2sc(CNC(=O)C3(CC(=O)O)Cc4ccccc4C3)nc2c1 [Example 24, 2-[2-[(5-methoxy-1,3-benzothiazol-2-yl)methylcarbamoyl]indan-2-yl]acetic acid]",Ki,[1],< 0.3 µM
same,inhibition at 50 µM,[2],> 60%
"O=C(O)CC1(C(=O)NCc2nc3cc(Cl)ccc3s2)Cc2ccccc2C1 [Example 25, 2-[2-[(5-chloro-1,3-benzothiazol-2-yl)methylcarbamoyl]indan-2-yl]acetic acid]",Ki,[1],< 0.3 µM
same,inhibition at 50 µM,[2],> 60%
"O=C(O)CC1(C(=O)NCc2c[nH]c3ccccc23)Cc2ccccc2C1 [Example 26, 2-[2-(1H-indol-3-ylmethylcarbamoyl)indan-2-yl]acetic acid]",Ki,[1],2 to 10 µM
same,inhibition at 50 µM,[2],30 to 60%
"O=C(O)CC1(C(=O)NCCc2cc3ccccc3[nH]2)Cc2ccccc2C1 [Example 27, 2-[2-[2-(1H-indol-2-yl)ethylcarbamoyl]indan-2-yl]acetic acid]",Ki,[1],2 to 10 µM
same,inhibition at 50 µM,[2],15 to 30%
"O=C(O)CC1(C(=O)NCc2cc3ccccc3[nH]2)Cc2ccccc2C1 [Example 29, 2-[2-(1H-indol-2-ylmethylcarbamoyl)indan-2-yl]acetic acid]",Ki,[1],< 0.3 µM
same,inhibition at 50 µM,[2],30 to 60%
"O=C(O)CC1(C(=O)NCCc2cc3ccccc3s2)Cc2ccccc2C1 [Example 30, 2-[2-[2-(benzothiophen-2-yl)ethylcarbamoyl]indan-2-yl]acetic acid]",Ki,[1],2 to 10 µM
same,inhibition at 50 µM,[2],15 to 30%
"COc1ccc2nc(CNC(=O)C3(CC(=O)O)Cc4ccccc4C3)sc2c1 [Example 32, 2-[2-[(6-methoxy-1,3-benzothiazol-2-yl)methylcarbamoyl]indan-2-yl]acetic acid]",Ki,[1],< 0.3 µM
same,inhibition at 50 µM,[2],> 60%
"O=C(O)CC1(C(=O)N[C@H](CO)Cc2c[nH]c3ccccc23)Cc2ccccc2C1 [Example 33, (2-{[(2S)-1-hydroxy-3-(1H-indol-3-yl)propan-2-yl]carbamoyl}-1,3-dihydroinden-2-yl)acetic acid]",Ki,[1],0.3 to 2 µM
same,inhibition at 50 µM,[2],30 to 60%
"CN(C)CC#Cc1ccc2nc(CNC(=O)C3(CC(=O)O)Cc4ccccc4C3)sc2c1 [Example 35, 2-[2-[[6-[3-(dimethylamino)prop-1-ynyl]-1,3-benzothiazol-2-yl]methylcarbamoyl]indan-2-yl]acetic acid]",Ki,[1],< 0.3 µM
same,inhibition at 50 µM,[2],> 60%
"CN(C)CCCc1ccc2nc(CNC(=O)C3(CC(=O)O)Cc4ccccc4C3)sc2c1 [Example 36, 2-[2-[[6-[3-(dimethylamino)propyl]-1,3-benzothiazol-2-yl]methylcarbamoyl]indan-2-yl]acetic acid]",Ki,[1],< 0.3 µM
same,inhibition at 50 µM,[2],> 60%
"C[N+](C)(C)CCCc1ccc2nc(CNC(=O)C3(CC(=O)O)Cc4ccccc4C3)sc2c1 [Example 37, 3-[2-[[[2-(carboxymethyl)indane-2-carbonyl]amino]methyl]-1,3-benzothiazol-6-yl]propyl-trimethyl-ammonium]",Ki,[1],0.3 to 2 µM
same,inhibition at 50 µM,[2],> 60%
"NCCCc1ccc2nc(CNC(=O)C3(CC(=O)O)Cc4ccccc4C3)sc2c1 [Example 38, 2-[2-[[6-(3-aminopropyl)-1,3-benzothiazol-2-yl]methylcarbamoyl]indan-2-yl]acetic acid]",Ki,[1],0.3 to 2 µM
same,inhibition at 50 µM,[2],> 60%
"NC/C=C/c1ccc2nc(CNC(=O)C3(CC(=O)O)Cc4ccccc4C3)sc2c1 [Example 39, 2-[2-[[6-[(E)-3-aminoprop-1-enyl]-1,3-benzothiazol-2-yl]methylcarbamoyl]indan-2-yl]acetic acid]",Ki,[1],< 0.3 µM
same,inhibition at 50 µM,[2],> 60%
"NCCCc1ccc2sc(CNC(=O)C3(CC(=O)O)Cc4ccccc4C3)nc2c1 [Example 40, 2-[2-[[5-(3-aminopropyl)-1,3-benzothiazol-2-yl]methylcarbamoyl]indan-2-yl]acetic acid]",Ki,[1],< 0.3 µM
same,inhibition at 50 µM,[2],> 60%
"O=C(O)CC1(C(=O)NCc2nc3ccc(N4CCNCC4)cc3s2)Cc2ccccc2C1 [Example 41, 2-[2-[(6-piperazin-1-yl-1,3-benzothiazol-2-yl)methylcarbamoyl]indan-2-yl]acetic acid]",Ki,[1],0.3 to 2 µM
same,inhibition at 50 µM,[2],30 to 60%
"CN1CCN(c2ccc3nc(CNC(=O)C4(CC(=O)O)Cc5ccccc5C4)sc3c2)CC1 [Example 42, 2-[2-[[6-(4-methylpiperazin-1-yl)-1,3-benzothiazol-2-yl]methylcarbamoyl]indan-2-yl]acetic acid]",Ki,[1],0.3 to 2 µM
same,inhibition at 50 µM,[2],> 60%
"C[N+]1(C)CCN(c2ccc3nc(CNC(=O)C4(CC(=O)O)Cc5ccccc5C4)sc3c2)CC1 [Example 43, 2-[2-[[6-(4,4-dimethylpiperazin-4-ium-1-yl)-1,3-benzothiazol-2-yl]methylcarbamoyl]indan-2-yl]acetic acid]",Ki,[1],0.3 to 2 µM
same,inhibition at 50 µM,[2],30 to 60%
